The values that follow come from the NIST ThermoML archive (doi:10.1021/je0502851).

Molecules are shown by their SMILES. ± gives the expanded uncertainty stated by the source.

For series [1] the following is noted: Crystal; DTA.
Series [2] is described as follows: Molar enthalpy of transition or fusion. Particulars: Crystal; DSC.

For the molecule `NCCCCCCN` [1,6-hexanediamine], in series [1], the Normal melting temperature came to 38.5 ± 0.53 °C. In addition, the “Molar enthalpy of transition or fusion” value in series [2] amounted to 9.41 ± 0.263 kcal/mol.

`NCCCCCCCCN` [1,8-diaminooctane]: in series [1], the Normal melting temperature was 51.73 ± 0.53 °C. Further, the “Molar enthalpy of transition or fusion” value in series [2] came to 12.1 ± 0.359 kcal/mol.

`NCCCCCCCCCCCCN` [1,12-dodecanediamine]: in series [1], the Normal melting temperature was 68.69 ± 0.53 °C. For the same molecule, in series [2], the “Molar enthalpy of transition or fusion” value was found to be 16 ± 0.359 kcal/mol.

On to `c1ccc2ccccc2c1` [naphthalene], for which the Normal melting temperature in series [1] was found to be 81.54 ± 0.53 °C. Besides, the “Molar enthalpy of transition or fusion” value in series [2] amounted to 4.67 ± 0.215 kcal/mol.
